Data published in US10519160B2, “Imaging agents for neural flux” (The General Hospital Corporation, priority 2014, dated 2019).

How the values were obtained:
[1] = system: olfactory epithelium; experiment: PET-MR imaging of radiotracer uptake in non-human primate; format: in vivo, rhesus macaque; conditions: NHPs
Description: The non-human primates were initially anesthetized with ketamine, followed by maintenance with isoflurane. Animals were placed on the imaging bed and two lines were inserted, an IV line for tracer administration and an arterial line for blood sampling. The animals were scanned for 90 minutes, including time for the MR structural scan. During the scan and tracer injection, the heart and breathing rate of the animal were monitored. Tracer doses were 4-6 mCi (bolus or bolus-plus-infusion) with or without treatment with study compounds (nonradioactive ‘blocking agent’). Prior to tracer injection, the purified tracer was analyzed on an analytical HPLC instrument to determine the purity (must be >95% chemical purity, must be >99% radiochemical purity) and specific activity (must be >1.0 Ci·μmol^−1 of the compound). As standard practice for all NHP work, pyrogenicity, chemical and radiochemical stability, residual solvents, pH, and sterility (post injection) were tested for. For [^11C] radiolabeled compounds, paired studies were performed with radiotracer injections spaced >2.5 h apart. For [^18F] studies, paired studies were performed by assessing baseline and pretreatment effect on two separate days. […]

[2] = system: olfactory epithelium; experiment: PET imaging of radiotracer uptake and specific binding with unlabeled-compound pretreatment in rats; format: in vivo, Sprague-Dawley rat
Excerpt: Prior to imaging, animals were anesthetized with isoflurane and a catheter was placed in a lateral tail vein. An extension line was used to attach the catheter to a syringe with heparinized saline, which was used to prevent clotting of the line and catheter. Animals were then placed in one of two instruments (a GammeMedicaTriumph PET/CT/SPECT scanner or a Siemens R4 PET scanner) and maintained under isoflurane anesthesia for the imaging period. For scans completed in the Triumph scanner, CT images of the animals were taken for PET image attenuation. For animals imaged in the R4, a Germanium (Ge) 68 or a Cobalt (Co) 57 line source was used to create an attenuation correction map. Following imaging, animals were placed in their cages and monitored until they recovered from the anesthesia.
Male Sprague-Dawley rats were imaged with [^11C] radiolabeled N-benzyl-2-fluoro-9-methyl-9H-purin-6-amine following treatment with [^12C] radiolabeled N-benzyl-2-fluoro-9-methyl-9H-purin-6-amine to determine the specific binding of the radiotracer in the olfactory epithelium. Animals were injected with [^12C] radiolabeled N-benzyl-2-fluoro-9-methyl-9H-purin-6-amine (i.v.; 16 mg/kg; 4 mg/mL in 10% DMSO, 10% Tween 20, and 80% saline). After 5 min, animals were injected with [^11C] radiolabeled N-benzyl-2-fluoro-9-methyl-9H-purin-6-amine (0.3-1.5 mCi), in 10% ethanol, 90% saline). [^11C] […] Although [^11C] […] N-benzyl-2-fluoro-9-methyl-9H-purin-6-amine binding in the presence of unlabeled N-benzyl-2-fluoro-9-methyl-9H-purin-6-amine, shown in FIG. 1A-1D.
Animals were injected with an unlabeled N-benzyl-2-fluoro-9-methyl-9H-purin-6-amine (0.1-16 mg/kg in 10% DMSO, 10% Tween 20, and 80% saline). Following this, animals were injected with [^11C] radiolabeled N-benzyl-2-fluoro-9-methyl-9H-purin-6-amine (0.3-1.5 mCi, in 10% ethanol, 90% saline). For the self-blocking dose-response study, the animals were co-administered with N-benzyl-2-fluoro-9-methyl-9H-purin-6-amine and [^11C] radiolabeled N-benzyl-2-fluoro-9-methyl-9H-purin-6-amine in 10% DMSO, 10% Tween 20, 10% ethanol and 70% saline in 1 mL.

[3] = PET, i.v. radiotracer, male Sprague-Dawley rats

change of radiotracer binding in the presence of unlabeled N-benzyl-2-fluoro-9-methyl-9H-purin-6-amine ([1]; nasal cavity): decrease
non-specific binding ([2]; PET, brain): low non-specific binding
specific binding in the brain ([2]; PET, brain): limited specific binding in the brain
initial uptake in the brain [2, 3]: high initial uptake in the brain
removal from the brain [2, 3]: fast removal from the brain
specific binding in the nasal cavity ([2]; PET, nasal cavity where olfactory receptor neurons are located, rats): specific binding in the nasal cavity
change of radiotracer binding in the presence of unlabeled N-benzyl-2-fluoro-9-methyl-9H-purin-6-amine ([2]; nasal cavity, rats, unlabeled compound i.v. 16 mg/kg 5 min before tracer): decrease
Structure (SMILES): [11CH3]n1cnc2c(NCc3ccccc3)nc(F)nc21 [[^11C] Radiolabeled N-benzyl-2-fluoro-9-methyl-9H-purin-6-amine]
specific binding in the nasal cavity [1]: specific binding is present in the nasal cavity
